Where “and” joins values, the source holds several entries; their conditions need not be identical. Identical values can stand only once. Entries after “also recorded” stand apart in the source; their conditions may differ. Like-named read-outs stand apart in the source and are kept apart here.

This is an account of results in patent US5030458A, “Method for preventing diet-induced carnitine deficiency in domesticated dogs and cats” (priority 1989, dated 1991).

Series [1] can be described thus: Plasma carnitine concentrations in Greyhound dogs on commercial dog food supplemented with L-Carnitine (ground beef). Format: in vivo. The settings on record: for concentration at 168 h / concentration at 336 h: dog, plasma, po, 350 mg/animal/day. The protocol: Six apparently healthy Greyhound dogs were determined to be normal by physical examination, fecal flotation, complete blood count, serum biochemical profile, ECG, and echocardiography. They were fed a standard commercial dog food diet free choice for a one-month control period. Control plasma samples (as well as subsequent test samples) were obtained following an eight-hour fast on two consecutive days for analysis of total, free, and esterified L-Carnitine concentration. The average of the plasma L-Carnitine concentration on two consecutive days was taken for each dog and each measuring period. Following the control period, all of the dogs were continued for two weeks on the standard commercial dog food diet supplemented with L-Carnitine. The L-Carnitine supplement was in the form of 0.5 kg per dog per day of raw frozen lean ground beef. This was equivalent to a daily supplement of 350 mg. of L-Carnitine per dog. Plasma samples were drawn on days 7 and 8 (averaged for the one-week measurement) and days 13 and 14 (averaged for the two-week measurement) for L-Carnitine analysis. Differences between the means of each test period and control were determined by the Student's t test.

The conditions of series [2]: cited from earlier work.
For series [3] the following is noted: cited from earlier work. The source holds these as a separate data set.
The test system of series [4] is cardiomyopathy. The settings on record: restoration toward normal of deficient L-Carnitine levels; dogs; cited from earlier work.
Series [5] deals with fatty acid oxidation in muscle homogenates. As to conditions: certain L-Carnitine deficient patients; cited from earlier work.
Series [6] has as its system cardiomyopathy. The settings on record: restoration toward normal of deficient L-Carnitine levels; hamsters; cited from earlier work.
A short description of series [7]: Renal reabsorption of L-Carnitine in dogs. It counts as in vivo, dog.
The conditions of series [8]: human; approaching; cited from earlier work.
The conditions of series [9]: rats; cited from earlier work.
For series [10] the following is noted: mammalian species; cited from earlier work.
Series [11] in a line: Changes in serum L-Carnitine following oral administration of gamma-butyrobetaine. As to conditions: administering GBB to a dog. It counts as in vivo. The text has this: Changes in serum L-Carnitine following oral
administration of 5 grams of gamma-butyro-betaine. Amounts

For series [12], the system named is carnitine deficiency syndromes. The settings on record: humans; U.S. Pat. No. 4,382,092; cited from earlier work.

Consider `C[N+](C)(C)C[C@H](O)CC(=O)[O-]` [L-Carnitine], for which the concentration in [1] (Week 1, individual dogs 1-6, ground beef 0.5 kg/day/dog (350 mg L-Carnitine/day), 10080 min, read-out: Plasma carnitine concentration, Free) was 60.5 µM and 52.5 µM and 55.6 µM and 56 µM and 51.7 µM; in series [1] (Week 1, individual dogs 1-6, ground beef 0.5 kg/day/dog (350 mg L-Carnitine/day), 10080 min, read-out: Plasma carnitine concentration, Total) it was 70.7 µM and 57.2 µM and 63.1 µM and 58.1 µM and 56.3 µM; in series [1] (Week 2, individual dogs 1-6, ground beef 0.5 kg/day/dog (350 mg L-Carnitine/day), 20160 min, read-out: Plasma carnitine concentration, Free) it was 62.2 µM and 52.7 µM and 52 µM and 58.5 µM and 41 µM; in [1] (Week 2, individual dogs 1-6, ground beef 0.5 kg/day/dog (350 mg L-Carnitine/day), 20160 min, read-out: Plasma carnitine concentration, Total) it was 65.7 µM and 58.1 µM and 56.3 µM and 66.3 µM and 43.2 µM. The “Plasma total L-Carnitine concentration (in words)” value in series [1] (diet supplemented with L-Carnitine) was “significantly increased; also recorded: stabilizes in a range that is considered normal; also recorded: dramatically increase the plasma concentration of L-Carnitine in dogs”. Moreover, the concentration at 168 h in [1] (Week 1, average of 6 dogs, S.D. ±3.5, ** p ≤ 0.01 vs control, read-out: Plasma carnitine concentration, Free, AVG) worked out at 55.9 µM; in series [1] (Week 1, average of 6 dogs, S.D. ±6.5, * p ≤ 0.05 vs control, read-out: Plasma carnitine concentration, Total, AVG) it was 62.5 µM; in [1] (Week 1, individual dogs 1-6, ground beef 0.5 kg/day/dog (350 mg L-Carnitine/day), read-out: Plasma carnitine concentration, Free), 58.9 µM; in series [1] (Week 1, individual dogs 1-6, ground beef 0.5 kg/day/dog (350 mg L-Carnitine/day), read-out: Plasma carnitine concentration, Total), 70.1 µM. Also, the concentration at 336 h in series [1] (Week 2, average of 6 dogs, S.D. ±8.0, * p ≤ 0.05 vs control, read-out: Plasma carnitine concentration, Free, AVG) turned out to be 51.9 µM; in series [1] (Week 2, average of 6 dogs, S.D. ±8.6, read-out: Plasma carnitine concentration, Total, AVG), 57 µM; in series [1] (Week 2, individual dogs 1-6, ground beef 0.5 kg/day/dog (350 mg L-Carnitine/day), read-out: Plasma carnitine concentration, Free) it was 44.9 µM; in series [1] (Week 2, individual dogs 1-6, ground beef 0.5 kg/day/dog (350 mg L-Carnitine/day), read-out: Plasma carnitine concentration, Total), 52.4 µM. Also, in series [2], the Solubility in water entry was “extremely soluble in water”. Further, the “Plasma total carnitine, mean” value in [3] (human females) is 51.5 ± 11.6 µM; in series [3] (human males), 59.3 ± 11.9 µM. Also, the Myocardial function result in the series on cardiomyopathy [4] and with cardiomyopathy [6] was “improved myocardial function” in each case. For the same molecule, the “Fatty acid oxidation in muscle homogenates” value in series [5] is “restoration to normal of fatty acid oxidation”. In addition, in [7], the “Renal reabsorption, average” value is on record as “approximately 75%”. The Renal reabsorption in series [8] is reported as approximately 100%. Further, the “Plasma carnitine concentration, average” value in series [9] is 56.5 ± 2.2 µM. Further, in [10], the “L-Carnitine concentration in cardiac and skeletal muscle relative to serum” value was “much higher than in serum”.

As to `C[N+](C)(C)CCCC(=O)[O-]` [gamma-butyro-betaine, gamma-butyrobetaine], in series [11], the “Effect on serum L-Carnitine (in words)” value is recorded as “produces a concomitant use in serum L-Carnitine”. In addition, the “Alleviation of carnitine deficiency syndromes” value in series [12] was “used successfully to alleviate carnitine deficiency syndromes in humans”.
